Results: PubChem BioAssay (NCI)
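Compound exposure: 48 hours, 5 concentrations, 96-well plates. GI50 is the concentration that inhibits growth by half. TGI: total growth inhibition.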 *1 amine or outer side, *2 acyl side, *3 side chain or, on linkers, in order; H or OH if unused. Where a SMILES comes first, the peptide text is derived from it. [ ]: non-standard residue; d: D form. ξ: configuration not given here. X21 = CC[C@@H](C)C(N[*:1])C(=O)[*:2]; ξR = N=C(N)NCCCC(N)C(=O)O; ξI = CCC(C)C(N)C(=O)O; ξL = CC(C)CC(N)C(=O)O; ξK = NCCCCC(N)C(=O)O; ξV = CC(C)C(N)C(=O)O; ξA = CC(N)C(=O)O

What was measured:
Experiment in all cases: NCI tumour cell line growth inhibition, 48 h
IGROV1 ovarian = system: IGROV1 ovarian
UO-31 renal = system: UO-31 renal
HS 578T breast = system: HS 578T breast
PC-3 prostate = system: PC-3 prostate
K-562 leukemia = system: K-562 leukemia
HOP-92 NSCLC = system: HOP-92 NSCLC
SF-268 CNS = system: SF-268 CNS
A498 renal = system: A498 renal
SNB-78 CNS = system: SNB-78 CNS
DMS 273 small cell lung = system: DMS 273 small cell lung

Row | SMILES | GI50 (IGROV1 ovarian) [µM] | TGI (IGROV1 ovarian) [µM] | TGI (UO-31 renal) [µM] | TGI (HS 578T breast) [µM] | TGI (PC-3 prostate) [µM] | TGI (K-562 leukemia) [µM] | TGI (HOP-92 NSCLC) [µM] | TGI (SF-268 CNS) [µM] | TGI (A498 renal) [µM] | GI50 (UO-31 renal) [µM] | GI50 (HS 578T breast) [µM] | GI50 (PC-3 prostate) [µM] | GI50 (K-562 leukemia) [µM] | GI50 (HOP-92 NSCLC) [µM] | GI50 (SF-268 CNS) [µM] | GI50 (A498 renal) [µM] | TGI (SNB-78 CNS) [µM] | TGI (DMS 273 small cell lung) [µM]
1 | Nc1ncnc2c1cnn2Cc1ccc(Cl)cc1 | > 100 | > 100 | > 100 | > 100 | > 100 | > 100 | > 92.5 | > 100 | 68.6 | – | – | – | – | – | – | – | – | –
2 | Cn1c(=O)c(Oc2ccccc2)cc2cnc(NC3CCOCC3)nc21 | > 25 | > 25 | > 25 | > 25 | > 25 | > 25 | > 25 | > 25 | > 25 | > 25 | > 25 | > 25 | > 25 | > 25 | > 25 | > 25 | – | –
3 | CSc1ncnc2c1CCN2 | > 100 | > 100 | > 100 | – | – | – | > 100 | > 100 | – | – | – | – | – | 75 | > 100 | – | > 100 | –
4 | C=CC1=C(C)C2=NC1=CC1=NC(=CC3=C(C)C4=C(O)C(C(=O)OC)C(=C5NC(=C2)C(C)C5CCC(=O)OC)C4=N3)C(CC)=C1C (configuration not stated) | – | > 100 | > 100 | > 100 | > 100 | > 100 | > 100 | > 100 | > 100 | – | – | – | – | – | – | – | – | –
5 | Cc1[nH]nc2c1N=C(c1ccccc1Cl)c1cc([N+](=O)[O-])ccc1N2 | > 8.07 | > 25 | > 25 | > 25 | > 25 | > 25 | > 25 | > 25 | 1.62 | 4.94 | 0.223 | 0.233 | 0.175 | > 18.9 | 1.14 | 0.151 | – | –
6 | O=c1c2ccccc2nc(-c2cccc(Cl)c2)n1NCC1(O)OCC(O)C(O)C1O (configuration not stated) | – | – | > 100 | – | – | > 100 | – | > 100 | > 100 | – | – | – | – | – | – | – | > 100 | > 100
7 | NC1CCC(N[C@@H]2C[C@H]2c2ccccc2)CC1 (some centres not stated) | 92.5 | > 100 | > 100 | > 100 | > 100 | > 100 | > 100 | > 100 | > 100 | 67.4 | > 100 | 70.8 | 29.9 | 5.47 | > 100 | 21.4 | – | –
8 | CC(=O)OC1Oc2ccccc2-c2oc(=O)c(-c3cc4ccccc4oc3=O)cc21 (configuration not stated) | 20.5 | 48.6 | 35.4 | 89.2 | > 100 | > 100 | 45.6 | 40.9 | 43.9 | 18 | 30 | 29.1 | 27.6 | 19.3 | 19.6 | 18.8 | – | –
9 | CC1(C)CC2(C)CC1CC2NC(=O)CCN1CCOCC1 (configuration not stated) | – | > 100 | > 100 | > 100 | > 100 | > 100 | > 100 | > 100 | > 100 | – | – | – | – | – | – | – | – | –
10 | O=C1CS/C(=N\S(=O)(=O)c2ccc(N3N=C4c5ccccc5CC4C3c3ccc(Cl)cc3)cc2)N1c1ccccc1 (configuration not stated) | 37.8 | > 100 | > 100 | 87.4 | 58.6 | 40.3 | > 100 | 84.8 | 53 | 29.1 | 29.4 | 22.6 | 18.7 | 27 | 22.7 | 25.6 | – | –
11 | O=C(Nc1cccc(-n2cc(-c3ccncc3)c(-c3ccc(O)c(Cl)c3)n2)c1)Nc1cccc(C(F)(F)F)c1 | 2.47 | 5.98 | 7.05 | 7.08 | 8.96 | > 100 | 4.14 | 9.98 | 8.99 | 2.01 | 1.51 | 2.47 | 2.69 | 1.07 | 2.59 | 1.9 | – | –
12 | CCSc1nnc(-c2ccc3ccccc3c2O)n1-c1ccc(Cl)cc1 | 4.42 | > 100 | > 100 | > 100 | > 100 | > 100 | > 100 | > 100 | > 100 | 3.31 | 85.4 | 50.1 | 4.04 | 9.23 | 26.1 | > 100 | – | –
13 | N#C/C(=C\c1ccc(Br)cc1)n1nnc2ccccc21 | 0.317 | 1.43 | 1.63 | 14 | 2.3 | > 19.7 | 1.58 | 9.24 | 4.37 | 0.449 | 2.63 | 0.47 | 0.235 | 0.23 | 2.62 | 1.71 | – | –
14 | Cc1ccc(Oc2ccc([N+](=O)[O-])cc2[N+](=O)[O-])c(C)c1 | – | > 100 | > 100 | – | – | > 100 | – | – | > 100 | – | – | – | – | – | – | – | > 100 | > 100
15 | NC(CC1=CCC=CC1)C(=O)O (configuration not stated) | – | > 100 | > 100 | > 100 | > 100 | > 100 | > 100 | > 100 | > 100 | – | – | – | – | – | – | – | – | –
16 | O=C(NCc1ccncc1)C1COc2cc(-c3cc(=O)c4ccccc4o3)ccc2O1 (configuration not stated) | – | > 100 | > 100 | – | – | > 100 | > 100 | – | – | – | – | – | – | – | – | – | > 100 | –
17 | CCC(C)C1NC(=O)C(CC(C)C)NC(=O)C(C)NC(=O)C(C(C)C)NC(=O)C(CCCCN)NC(=O)C(CC(C)C)NC(=O)C(C(C)C)NC(=O)[C@H](C)NC(=O)C(C(C)CC)NC(=O)C(CCCN=C(N)N)NC(=O)C(CCCCN)NC(=O)C(CCCN=C(N)N)NC(=O)C(CCCCN)NC(=O)C([C@H](C)CC)NC(=O)C(CCCCN)NC1=O (some centres not stated) (cyclo(A[ξV][ξL][ξK][ξV][ξA][ξL][ξI][ξK][X21][ξK][ξR][ξK][ξR][ξI])) | 1.62 | 4.55 | 2.67 | 4.63 | 4.85 | 3.79 | 2.91 | 5.12 | 2.82 | 1.37 | 1.72 | 0.701 | 0.783 | 1.14 | 1.76 | 1.15 | – | –
